From patent US12415816B2, “Benzothiazole derivatives and 7-aza-benzothiazole derivatives as janus kinase 2 inhibitors and uses thereof” (Dana-Farber Cancer Institute, Inc., priority 2018, dated 2025)

Tested on: JAK2/STAT5
Experiment: Western blots of JAK2/STAT5 inhibition in cells
Format: cell-based
Details: cells treated with indicated concentrations for 4 hours; immunoblotting pJAK2, pSTAT5, c-Myc
Method: (§1) FIG. 1. […] Cells were treated with the indicated concentrations of JAK2 inhibitor for 4 hours. Cell pellets were lysed with Cell Lysis Buffer (Cell Signaling Technology) and then immunoblotting was performed with pJAK2 (#3771), pSTAT5 (#4322), c-Myc (#9402), JAK2 (#3230), STAT5 (#9363 or 94205), and β-actin (#4967 or 12620) antibodies from Cell Signaling Technology.
as §1, with “2.” for “1.”

Structure (SMILES) | JAK2/STAT5 inhibition (Western blots)
CCN1CCN(C(=O)c2cc(NC(=O)c3ccc(C)c(-c4ccc5nc(NC(=O)C6CC6)sc5n4)c3)cc(C(F)(F)F)c2)CC1 [Compound I-6, 3-(2-(cyclopropanecarboxamido)thiazolo[5,4-b]pyridin-5-yl)-N-(3-(4-ethylpiperazine-1-carbonyl)-5-(trifluoromethyl)phenyl)-4-methylbenzamide] | JAK2/STAT5 inhibition
CCN1CCN(Cc2cc(C(=O)Nc3ccc(C)c(-c4ccc5nc(NC(=O)C6CC6)sc5n4)c3)cc(C(F)(F)F)c2)CC1 [Compound I-8, N-(3-(2-(cyclopropanecarboxamido)thiazolo[5,4-b]pyridin-5-yl)-4-methylphenyl)-3-((4-ethylpiperazin-1-yl)methyl)-5-(trifluoromethyl)benzamide] | JAK2/STAT5 inhibition

Tested on: cell lines or patient-derived xenografts from patients with CRLF2-rearranged B-ALL
Experiment: not given
Details: cited from earlier work

Structure (SMILES) | IC50
N#CC[C@H](C1CCCC1)n1cc(-c2ncnc3[nH]ccc23)cn1 [Ruxolitinib] | > 20 µM

Target: JAK2 (Homo sapiens (Human), UniProt O60674)
Experiment: JAK2 Z-Lyte biochemical assay
Details: commercial JAK2 Z-Lyte assay from Invitrogen
Method: The JAK2 Z-Lyte biochemical assay was performed according to manufacturer's instructions (Life Technologies).

Sequence of JAK2 (O60674 whole entry): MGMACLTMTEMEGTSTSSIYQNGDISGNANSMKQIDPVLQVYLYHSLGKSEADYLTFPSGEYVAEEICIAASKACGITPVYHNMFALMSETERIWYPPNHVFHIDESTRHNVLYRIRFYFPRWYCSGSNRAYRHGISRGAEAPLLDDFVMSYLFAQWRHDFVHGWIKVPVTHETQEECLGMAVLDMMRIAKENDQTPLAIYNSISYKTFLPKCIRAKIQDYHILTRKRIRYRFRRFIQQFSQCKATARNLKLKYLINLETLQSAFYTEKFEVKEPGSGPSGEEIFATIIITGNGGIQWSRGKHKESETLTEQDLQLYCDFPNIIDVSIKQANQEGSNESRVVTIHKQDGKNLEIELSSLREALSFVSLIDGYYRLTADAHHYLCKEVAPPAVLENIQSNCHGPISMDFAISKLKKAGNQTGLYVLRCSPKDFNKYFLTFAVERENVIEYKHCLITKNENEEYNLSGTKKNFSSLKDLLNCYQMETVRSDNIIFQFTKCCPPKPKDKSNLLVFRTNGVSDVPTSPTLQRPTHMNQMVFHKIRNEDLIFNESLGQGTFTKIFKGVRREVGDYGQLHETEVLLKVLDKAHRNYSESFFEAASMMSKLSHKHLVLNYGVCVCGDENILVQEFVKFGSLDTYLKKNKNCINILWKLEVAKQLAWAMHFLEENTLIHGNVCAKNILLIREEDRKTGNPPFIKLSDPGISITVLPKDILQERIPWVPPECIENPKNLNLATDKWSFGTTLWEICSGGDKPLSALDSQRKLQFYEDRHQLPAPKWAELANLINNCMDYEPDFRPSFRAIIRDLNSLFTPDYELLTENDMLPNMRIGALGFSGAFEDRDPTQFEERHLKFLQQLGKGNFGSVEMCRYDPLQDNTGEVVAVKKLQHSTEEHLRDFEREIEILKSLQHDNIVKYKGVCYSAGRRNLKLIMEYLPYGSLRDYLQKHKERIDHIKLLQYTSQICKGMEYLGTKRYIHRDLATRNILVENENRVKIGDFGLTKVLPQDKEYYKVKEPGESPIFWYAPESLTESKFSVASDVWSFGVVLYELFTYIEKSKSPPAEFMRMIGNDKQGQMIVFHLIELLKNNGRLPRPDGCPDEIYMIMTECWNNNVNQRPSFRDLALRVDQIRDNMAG

Structure (SMILES) | IC50
CC(=O)Nc1nc2ccc(-c3cc(C(=O)Nc4ccc(F)cc4F)ccc3C)nc2s1 [Compound I-2, 3-(2-acetamidothiazolo[5,4-b]pyridin-5-yl)-N-(2,4-difluorophenyl)-4-methylbenzamide] | > 10 µM
CCN1CCN(Cc2cc(C(=O)Nc3ccc(C)c(-c4ccc5nc(NC(=O)C6CC6)sc5c4)c3)cc(C(F)(F)F)c2)CC1 [Compound I-4] | 0.881 µM
CCN1CCN(C(=O)c2cc(NC(=O)c3ccc(C)c(-c4ccc5nc(NC(=O)C6CC6)sc5n4)c3)cc(C(F)(F)F)c2)CC1 [Compound I-6, 3-(2-(cyclopropanecarboxamido)thiazolo[5,4-b]pyridin-5-yl)-N-(3-(4-ethylpiperazine-1-carbonyl)-5-(trifluoromethyl)phenyl)-4-methylbenzamide] | 1.45 µM
CCN1CCN(Cc2cc(C(=O)Nc3cccc(-c4ccc5nc(NC(=O)C6CC6)sc5n4)c3)cc(C(F)(F)F)c2)CC1 [Compound I-7, N-(3-(2-(cyclopropanecarboxamido)thiazolo[5,4-b]pyridin-5-yl)phenyl)-3-((4-ethylpiperazin-1-yl)methyl)-5-(trifluoromethyl)benzamide] | 0.55 µM
CCN1CCN(Cc2cc(C(=O)Nc3ccc(C)c(-c4ccc5nc(NC(=O)C6CC6)sc5n4)c3)cc(C(F)(F)F)c2)CC1 [Compound I-8, N-(3-(2-(cyclopropanecarboxamido)thiazolo[5,4-b]pyridin-5-yl)-4-methylphenyl)-3-((4-ethylpiperazin-1-yl)methyl)-5-(trifluoromethyl)benzamide] | 0.639 µM
CCN1CCN(Cc2cc(NC(=O)Nc3ccc(C)c(-c4ccc5nc(NC(=O)C6CC6)sc5n4)c3)cc(C(F)(F)F)c2)CC1 [Compound I-9, N-(5-(5-(3-(3-((4-ethylpiperazin-1-yl)methyl)-5-(trifluoromethyl)phenyl)ureido)-2-methylphenyl)thiazolo[5,4-b]pyridin-2-yl)cyclopropanecarboxamide] | > 10 µM
O=C(Nc1nc2ccc(-c3ccc4c(c3)N(C(=O)Nc3ccc(F)cc3F)CC4)nc2s1)C1CC1 [Compound I-10, 6-(2-(cyclopropanecarboxamido)thiazolo[5,4-b]pyridin-5-yl)-N-(2,4-difluorophenyl)indoline-1-carboxamide] | > 10 µM
CCN1CCN(Cc2cc(C(=O)N3Cc4ccc(-c5ccc6nc(NC(=O)C7CC7)sc6n5)cc4C3)cc(C(F)(F)F)c2)CC1 [Compound I-13, N-(5-(2-(3-((4-ethylpiperazin-1-yl)methyl)-5-(trifluoromethyl)benzoyl)isoindolin-5-yl)thiazolo[5,4-b]pyridin-2-yl)cyclopropanecarboxamide] | > 10 µM
CCN1CCN(Cc2cc(NC(=O)N3Cc4ccc(-c5ccc6nc(NC(=O)C7CC7)sc6n5)cc4C3)cc(C(F)(F)F)c2)CC1 [Compound I-14, 5-(2-(cyclopropanecarboxamido)thiazolo[5,4-b]pyridin-5-yl)-N-(3-((4-ethylpiperazin-1-yl)methyl)-5-(trifluoromethyl)phenyl)isoindoline-2-carboxamide] | > 10 µM
CCN1CCN(Cc2cc(NC(=O)c3ccc(C)c(Oc4ccc5nc(NC(=O)C6CC6)sc5n4)c3)cc(C(F)(F)F)c2)CC1 [Compound I-20, 3-((2-(cyclopropanecarboxamido)thiazolo[5,4-b]pyridin-5-yl)oxy)-N-(3-((4-ethylpiperazin-1-yl)methyl)-5-(trifluoromethyl)phenyl)-4-methylbenzamide] | 2.83 µM
CCN1CCN(Cc2cc(NC(=O)N3Cc4ccc(Oc5ccc6nc(NC(=O)C7CC7)sc6n5)cc4C3)cc(C(F)(F)F)c2)CC1 [Compound I-22, 5-((2-(cyclopropanecarboxamido)thiazolo[5,4-b]pyridin-5-yl)oxy)-N-(3-((4-ethylpiperazin-1-yl)methyl)-5-(trifluoromethyl)phenyl)isoindoline-2-carboxamide] | > 10 µM
O=C(Nc1nc2ccc(Oc3ccc4c(c3)CN(C(=O)Nc3ccc(F)cc3F)C4)nc2s1)C1CC1 [Compound I-23, 5-((2-(cyclopropanecarboxamido)thiazolo[5,4-b]pyridin-5-yl)oxy)-N-(2,4-difluorophenyl)isoindoline-2-carboxamide] | > 10 µM
O=C(Nc1nc2ccc(Oc3ccc4nc(Nc5ccc(F)cc5F)[nH]c4c3)nc2s1)C1CC1 [Compound I-24, N-(5-((2-((2,4-difluorophenyl)amino)-1H-benzo[d]imidazol-6-yl)oxy)thiazolo[5,4-b]pyridin-2-yl)cyclopropanecarboxamide] | > 10 µM
CCN1CCN(Cc2ccc(Nc3nc4ccc(Oc5ccc6nc(NC(=O)C7CC7)sc6n5)cc4[nH]3)cc2C(F)(F)F)CC1 [Compound I-25, N-(5-((2-((4-((4-ethylpiperazin-1-yl)methyl)-3-(trifluoromethyl)phenyl)amino)-1H-benzo[d]imidazol-6-yl)oxy)thiazolo[5,4-b]pyridin-2-yl)cyclopropanecarboxamide] | 0.63 µM

Other lines, results leading:

IC50 | Structure (SMILES)
> 10 µM | Cc1ccc(C(=O)Nc2ccc(F)cc2F)cc1-c1ccc2nc(NC(=O)C3CC3)sc2n1 [Compound I-1, 3-(2-(cyclopropanecarboxamido)thiazolo[5,4-b]pyridin-5-yl)-N-(2,4-difluorophenyl)-4-methylbenzamide]
> 10 µM | Cc1ccc(NC(=O)Nc2ccc(F)cc2F)cc1-c1ccc2nc(NC(=O)C3CC3)sc2n1 [Compound I-3, N-(5-(5-(3-(2,4-difluorophenyl)ureido)-2-methylphenyl)thiazolo[5,4-b]pyridin-2-yl)cyclopropanecarboxamide]
> 10 µM | CCN1CCN(Cc2cc(C(=O)N3CCc4ccc(-c5ccc6nc(NC(=O)C7CC7)sc6n5)cc43)cc(C(F)(F)F)c2)CC1 [Compound I-11, N-(5-(1-(3-((4-ethylpiperazin-1-yl)methyl)-5-(trifluoromethyl)benzoyl)indolin-6-yl)thiazolo[5,4-b]pyridin-2-yl)cyclopropanecarboxamide]
> 10 µM | CCN1CCN(Cc2cc(NC(=O)N3CCc4ccc(-c5ccc6nc(NC(=O)C7CC7)sc6n5)cc43)cc(C(F)(F)F)c2)CC1 [Compound I-12, 6-(2-(cyclopropanecarboxamido)thiazolo[5,4-b]pyridin-5-yl)-N-(3-((4-ethylpiperazin-1-yl)methyl)-5-(trifluoromethyl)phenyl)indoline-1-carboxamide]
> 10 µM | O=C(Nc1nc2ccc(-c3ccc4c(c3)CN(C(=O)Nc3ccc(F)cc3F)C4)nc2s1)C1CC1 [Compound I-15, 5-(2-(cyclopropanecarboxamido)thiazolo[5,4-b]pyridin-5-yl)-N-(2,4-difluorophenyl)isoindoline-2-carboxamide]
> 10 µM | Cc1ccc(NC(=O)Nc2ccc(F)cc2F)cc1Oc1ccc2nc(NC(=O)C3CC3)sc2n1 [Compound I-16, N-(5-(5-(3-(2,4-difluorophenyl)ureido)-2-methylphenoxy)thiazolo[5,4-b]pyridin-2-yl)cyclopropanecarboxamide]
> 10 µM | CCN1CCN(Cc2ccc(NC(=O)Nc3ccc(C)c(Oc4ccc5nc(NC(=O)C6CC6)sc5n4)c3)cc2C(F)(F)F)CC1 [Compound I-17, N-(5-(5-(3-(4-((4-ethylpiperazin-1-yl)methyl)-3-(trifluoromethyl)phenyl)ureido)-2-methylphenoxy)thiazolo[5,4-b]pyridin-2-yl)cyclopropanecarboxamide]
0.824 µM | CCN1CCN(Cc2cc(C(=O)Nc3ccc(C)c(Oc4ccc5nc(NC(=O)C6CC6)sc5n4)c3)cc(C(F)(F)F)c2)CC1 [Compound I-19, N-(3-((2-(cyclopropanecarboxamido)thiazolo[5,4-b]pyridin-5-yl)oxy)-4-methylphenyl)-3-((4-ethylpiperazin-1-yl)methyl)-5-(trifluoromethyl)benzamide]
> 10 µM | CCN1CCN(Cc2ccc(NC(=O)N3Cc4ccc(Oc5ccc6nc(NC(=O)C7CC7)sc6n5)cc4C3)cc2C(F)(F)F)CC1 [Compound I-21, 5-((2-(cyclopropanecarboxamido)thiazolo[5,4-b]pyridin-5-yl)oxy)-N-(4-((4-ethylpiperazin-1-yl)methyl)-3-(trifluoromethyl)phenyl)isoindoline-2-carboxamide]
